Source: PubChem BioAssay AID2305 (GlaxoSmithKline (GSK), 2010)

These compounds were tested on P. falciparum 3D7 growth, pLDH absorbance (assay: P. falciparum 3D7 growth inhibition, dose response, strain 3D7 (AID 2305)).

Row | SMILES | IC50 [nM]
1 | CNC(=O)c1cnc(Nc2ccc(N3CCN(C)CC3)cc2)nc1Nc1cccc(OC(C)C)c1 | 150
2 | COc1ccc2nccc([C@@H](O)CN3CCC(NCCOc4ccncc4)CC3)c2c1 | 690
3 | CCOC(=O)CNC(=O)N1CCN(C(=O)NCC(=O)OCC)CC1 | 850
4 | O=C(/C=C/c1ccc(Cl)c(Cl)c1)NCCCCCN1CCC(CCNC(=O)Cc2ccc(Cl)cc2)CC1 | 1160
5 | Nc1cc(-c2ccc3c(N)nccc3c2)ccc1Cl | 1540
6 | NC(N)=NCCN(Cc1ccccc1)c1ccc(Cl)cc1 | 50
7 | CS(=O)(=O)CCNCc1ccc(-c2cc3c(Nc4ccc(OCc5cccc(F)c5)c(Cl)c4)ncnc3s2)[nH]1 | 840
8 | COc1ccc(-c2ccc(NC(=O)c3ccc(C#N)cc3)cc2)cc1CN1CCCC1 | 870
9 | COc1cc2nc(Nc3ccc4c(ccn4Cc4ccccc4)c3)nc(Nc3ccc4c(ccn4Cc4ccccc4)c3)c2cc1OC | 650
10 | COc1ccccc1-c1ccc(CNC(=O)C(CN2CCN(C)CC2)c2ccccc2)cc1 (stereo unspecified) | 1260
11 | O=C(/C=C/c1ccc(Cl)c(Cl)c1)NCCCCCN1CCC(NC(=O)Nc2cc(F)ccc2F)CC1 | 700
12 | O=C(Nc1ccc2c(c1)CNCC2)c1ccc(-c2ccc(Cl)cc2)cc1 | 660
13 | CC[C@H]1CN2CC[C@H]1C[C@H]2[C@H](O)c1cc(-c2ccccc2F)nc2ccc(OC)cc12 | 80
14 | COc1ccc2nccc(NC(=O)N3CCC(NCCOc4cc(F)cc(F)c4)CC3)c2n1 | 770
15 | CCOc1ccc2nc(C)cc(NN=Cc3cccc(C)n3)c2c1 | 750
16 | CCOc1ccc2c(NN=Cc3cccc(OC)c3)cc(C)nc2c1 | 120
17 | O=C(Nc1cccc(-c2ccc(-c3nc4ccc(F)cc4[nH]3)cc2)c1)Nc1ccc(F)c(F)c1F | 110
18 | COc1cc(Cn2ccc3c4c(N)nc(N)nc4ccc32)cc(OC)c1OC | 10
19 | CCOC(=O)N(C)/N=C/[C@H](CCc1ccccc1)NC(=O)[C@H](CC(C)C)NC(=O)c1cc2cccc(OC)c2o1 | 560
20 | CC1(C)CC(=O)c2c(O)cc(OCc3ccncc3)cc2O1 | 1040
21 | CCCNC(=O)c1ccc(N2CCC(c3ccccc3C)CC2)nc1 | 1520

Row | SMILES | IC50 [nM]
22 | CCCCOP(=O)(OCCCC)C(=Cc1ccc(O)c2ccccc12)P(=O)(OCCCC)OCCCC | 1070
23 | COC(=O)c1noc(C)c1I | 800
24 | Cc1nnsc1C(=O)Nc1ccc(-c2cccc(-c3nc4ccc(C(F)(F)F)cc4[nH]3)c2)cc1 | 840
25 | CCOC(=O)c1c(C)noc1Nc1ccc(OC)cc1 | 670
26 | CCCCc1ccc(S(=O)(=O)Nc2ccc3c(c2)CCN(Cc2c[nH]c4cnccc24)CC3)cc1 | 670
27 | CCCCCCN1CCCN(Cc2cccc(NC(=O)c3cc4ccccc4s3)c2)CC1 | 660
28 | OCCN1CCN(C(=S)Nc2ccccc2)CC1 | 940
29 | CCN(CC)CCN(Cc1ccc(-c2ccc(C(F)(F)F)cc2)cc1)C(=O)Cn1cc(Cc2cnn(C)c2)c(=O)nc1/C=C/c1ccc(F)cc1 | 1060
30 | COc1ccc2nccc([C@@H](O)CN3CCC(NC(=O)c4ccc(-c5ccccc5)s4)CC3)c2c1 | 310
31 | CN1CC=C(C=Cc2c[nH]c3ccccc23)CC1 | 1340
32 | NC(N)=NC(=O)Nc1ccc(Cl)c(Cl)c1 | 1040
33 | COc1ccc2nccc(N3CCC(CCNCc4ccc5c(n4)NC(=O)CO5)CC3)c2n1 | 1000
34 | CN(C)CCCOc1ccc(-c2nc(-c3ccc4c(c3)CCC4=NO)c(-c3ccncc3)[nH]2)cc1 | 830
35 | c1ccc(CNCc2ccc(-c3ccc(-c4nc5ccccc5[nH]4)cc3)cc2)cc1 | 340
36 | NC1CCN(c2cnn(Cc3cccc(NC(=O)Nc4ccc(-c5ccccc5)cc4)c3)c(=O)c2Cl)CC1 | 1140
37 | CC(C#N)Cc1ccc(-c2cnc(N)c3cc(-c4ccnc(N)n4)ccc23)cc1 (stereo unspecified) | 990
38 | Cc1cc(=O)[nH]c(-n2nc(C)cc2NC(=O)C2(c3ccc(Cl)cc3)CCCC2)n1 | 290
39 | N=c1n(Cc2ccccc2)c2ccccc2n1CC(O)c1ccc(Cl)cc1 (stereo unspecified) | 880
40 | OCCN1CCN(c2ccc(Nc3ccnc4cc5ccccc5cc34)cc2)CC1 | 40
41 | CC(Cc1ccc(OCC(=O)NCC2CCN(CCc3cccc(Cl)c3)CC2)cc1)NCCc1cccc(Cl)c1 (stereo unspecified) | 660
